In US4305872A, “Polypeptide derivatives” (priority 1979, dated 1981):

Key:
[1] = tested on: guinea pig ileum (opiate receptor site); test: Guinea pig ileum (GPI) assay for enkephalin activity, electrically stimulated contractions; settings: specificity controls; FIGS. 6-9
[2] = tested on: TRH-Induced Release of Radioactive (125I) Iodide from the Thyroid; test: McKenzie Bioassay for TRH-Induced Release of Radioactive (125I) Iodide from the Thyroid; format: in vivo, Long-Evans male rats; settings: worked Example; for (I-125) cpm/200 ul blood at THR: tail vein; for Δ cpm: net of saline control
Protocol: 16 Long-Evans male rats were maintained on an iodine deficient diet for 1 week. Each rat was then injected intraperitoneally (i.p.) with 20 μCi of radioactive (Na^125 I). Six hours before injection of the material to be tested, the animals were given 0.03% propylthioluracil (PTU) in their drinking water. This prevents the re-uptake of released ^125 I (iodoproteins such as mono- and diodo-tyrosines, T3 or T4) once they are released from the thyroid under the influence of TRH or TRH analogue. 24 hrs. after administration of the radioactive iodine (0.2 ml) 200 μl of blood was withdrawn from the tail vein of each rat, transferred quantitatively into a 12×75 mm test tube containing 1 ml of 0.9% saline and the ^125 I content counted by use of a Beckmann γ-ray spectrometer. One ml of TRH or TRH analogue dissolved in 0.9% NaCl (physiologic saline) was injected into the tail vein of each of four rats per dose considered (e.g. 0.4 μgm, 40 μgm, 80 μgm). 1 ml of 0.9% NaCl (physiologic saline) was injected also to each of four rats to serve as a control for stress-related influence (trauma from blood collecting procedure and anesthesia) on release of ^125 I from the thyroid gland. Once the saline control or designated dose of TRH or TRH analogue has been injected, blood samples (0.2 ml) are collected from the tail vein of each rat at 30 minutes, 1 hr, 2 hrs, and 3 hrs. and the ^125 I content evaluated as described above. Upon completion of the experiment, animals are kept for a 24 hr time period to observe any adverse toxicological effects. If they maintain their usual behavior (vital signs), it is assumed the compounds tested cause no overt physiological effects.
An increase in I-125 content above the basal level, as exemplified by the saline control, indicates a TRH induced release of TSH (thyrotropin stimulating hormone) which in turn causes release of I-125 from the thyroid. This type of response means the […] hormone physiologic mechanism (hypothalamo-pituitary-thyroid axis) is working properly, and the animals are suitable for testing. […] For each dose level considered, the radio-activity content of I-125 (cpm) per 200 μl of blood is evaluated at each time period and subtracted from the saline control radioactivity (I-125) content to obtain the Δ cpm released from thyroid. The net cpm released is therefore evaluated, rather than the absolute radio-activity for each time period and dose level.
To evaluate the effect of TRH analogues (TRH-CMK or TRH-DMK) on the TRH-TSH release of I-125 from the thyroid, each animal of a test group (4 animals) was injected with 1 ml of a given dose of the TRH analogue into the tail vein. […] Blood samples (0.2 ml) were then collected at various times (e.g. 1/2, 1 hr, 2 hrs, etc.) and evaluated for their I-125 content. […]

Serum TSH level = test: 6 Point Parallel Line Assay, serum TSH level after inhibitor then TRH; format: in vivo; settings: no inhibitor (saline injected)
Protocol: (§1) 6 Point Parallel Line Assay Design:
(§2) 3 sample, 3 standard samples
(§3) Responses expressed in (Ng/ml)
(§4) Animals challenged with peptide derivative dissolved in 0.85% NaCl.
(§5) Total Injection Volume: 0.25 ml
(§6) Anatomical Site of Injection: Jugular vein
(§7) Samples obtained by subjecting animal to ether anesthesia, and sacrificing animal.
(§8) Each animal was injected via jugular vein 0.25 ml of peptide derivative: to insure sample was injected into vein, the syringe plunger was gently retracted, if blood could be withdrawn, then the sample was injected. Following injection, the syringe was rinsed with blood and injected. 1/2-hour following injection of the peptide derivative, using the same procedure, a TRH dose-response curve was made using the same injection technique.
(§9) 0 time--injection of TRH derivative (80 ugm)
(§10) 1/2 hr.--injection of TRH (4, 40, and 80 ugm)
(§11) 1 hrs.--blood sample collected

Serum Prolactin Level = test: 6 Point Parallel Line Assay, serum prolactin level after inhibitor then TRH; format: in vivo; settings: no inhibitor (saline injected)
Protocol: as §1, §2, §3, §4, §5, §6, §7, §8, §9, §10, §11

Compound	whether it effects a response on the GPI (neither = no response) [1]	(I-125) cpm/200 ul blood at THR ([2]; 0.4 μgm TRH) [cpm/200 ul]	Δ cpm ([2]; 0.4 μgm TRH)	(I-125) cpm/200 ul blood at THR ([2]; 4 μgm TRH) [cpm/200 ul]	Δ cpm ([2]; 4 μgm TRH)	Serum TSH level (Serum TSH level; FIRST EXPERIMENT, TRH 4 μg) [ng/mL]	Serum TSH level (Serum TSH level; FIRST EXPERIMENT, TRH 40 μg) [ng/mL]	Serum TSH level (Serum TSH level; FIRST EXPERIMENT, TRH 80 μg) [ng/mL]	Serum TSH level (Serum TSH level; SECOND EXPERIMENT, TRH 4 μg) [ng/mL]	Serum TSH level (Serum TSH level; SECOND EXPERIMENT, TRH 40 μg) [ng/mL]	Serum TSH level (Serum TSH level; SECOND EXPERIMENT, TRH 80 μg) [ng/mL]	Serum Prolactin Level (Serum Prolactin Level; FIRST EXPERIMENT, TRH 4 μg) [ng/mL]	Serum Prolactin Level (Serum Prolactin Level; FIRST EXPERIMENT, TRH 40 μg) [ng/mL]	Serum Prolactin Level (Serum Prolactin Level; FIRST EXPERIMENT, TRH 80 μg) [ng/mL]	Serum Prolactin Level (Serum Prolactin Level; SECOND EXPERIMENT, TRH 4 μg) [ng/mL]	Serum Prolactin Level (Serum Prolactin Level; SECOND EXPERIMENT, TRH 40 μg) [ng/mL]	Serum Prolactin Level (Serum Prolactin Level; SECOND EXPERIMENT, TRH 80 μg) [ng/mL]
N-tosyl-phenylalanine chloromethyl ketone	neither	–	–	–	–	–	–	–	–	–	–	–	–	–	–	–	–
NC(=O)[C@@H]1CCCN1C(=O)[C@H](Cc1c[nH]cn1)NC(=O)[C@@H]1CCC(=O)N1 [TRH, L-pyroglutamyl-L-histidyl-L-prolinamide]	–	261	+141 cpm	358	+238 cpm	312	412	1139	167	612	839	61	76	216	46	150	181
